Experimental data: publication PMC10382584, “Macrocyclization of linear molecules by deep learning to facilitate macrocyclic drug candidates discovery” (Nature Communications, 2023)

How the values were obtained:
Experiment in all cases: biochemical
Parameters in all cases: DiscoveRx KINOMEscan competition binding, percent of DMSO control signal at 100 nM
Conditions in all cases: read-out: Fig. 4a / Percent Control / Compound 1; percent of DMSO control, competition binding
IGF1R = IGF1R (Homo sapiens, UniProt P08069)
Method: (§1) The kinase selectivity profile was performed by using the DiscoveRx KINOMEscan platform. […] Test compounds were prepared as 40× stocks in 100% DMSO and directly diluted into the assay. The results were defined as a percentage of signal between the negative (DMSO, 100% control) and the positive (control compound, 0% control) control, which was calculated as follows: percent control = [(test compound signal − positive control signal)/(negative control signal − positive control signal)] × 100.

TNK2 = TNK2 (Homo sapiens, UniProt Q07912)
Method: as §1

CAMK1 = CAMK1 (Homo sapiens, UniProt Q14012)
Method: as §1

CAMKK1 = CAMKK1 (Homo sapiens, UniProt Q8N5S9)
Method: as §1

ALK(C1156Y) = ALK(C1156Y) (Homo sapiens, UniProt Q9UM73, C1156Y)
Method: as §1

FLT3 = FLT3 (Homo sapiens, UniProt P36888)
Method: as §1

PKN1 = PKN1 (Homo sapiens, UniProt Q16512)
Method: as §1

ERK4 = molecular target: T1, ERK4 (Homo sapiens, UniProt P31152)
T1 construct: gene MAPK4
Method: as §1

[1] = molecular target: T2, TYK2(JH1domain-catalytic) (Homo sapiens, UniProt P29597)
T2 construct: JH1domain-catalytic
Method: as §1

SBK1 = SBK1 (Homo sapiens, UniProt Q52WX2)
Method: as §1

FGFR2 = FGFR2 (Homo sapiens, UniProt P21802)
Method: as §1

CDC2L5 = molecular target: T3, CDC2L5 (Homo sapiens, UniProt Q14004)
T3 construct: gene CDK13
Method: as §1

RAF1 = RAF1 (Homo sapiens, UniProt P04049)
Method: as §1

TNK1 = TNK1 (Homo sapiens, UniProt Q13470)
Method: as §1

STK39 = STK39 (Homo sapiens, UniProt Q9UEW8)
Method: as §1

TRPM6 = TRPM6 (Homo sapiens, UniProt Q9BX84)
Method: as §1

CTK = molecular target: T4, CTK (Homo sapiens, UniProt P42679)
T4 construct: gene MATK
Method: as §1

CDKL1 = CDKL1 (Homo sapiens, UniProt Q00532)
Method: as §1

MRCKA = molecular target: T5, MRCKA (Homo sapiens, UniProt Q5VT25)
T5 construct: gene CDC42BPA
Method: as §1

JNK1 = molecular target: T6, JNK1 (Homo sapiens, UniProt P45983)
T6 construct: gene MAPK8
Method: as §1

EGFR(L858R,T790M) = EGFR(L858R,T790M) (Homo sapiens, UniProt P00533, L858R/T790M)
Method: as §1

FLT3(D835Y) = FLT3(D835Y) (Homo sapiens, UniProt P36888, D835Y)
Method: as §1

ASK2 = molecular target: T7, ASK2 (Homo sapiens, UniProt O95382)
T7 construct: gene MAP3K6
Method: as §1

PIK3CA(H1047L) = PIK3CA(H1047L) (Homo sapiens, UniProt P42336, H1047L)
Method: as §1

FLT3(ITD) = FLT3(ITD) (Homo sapiens, UniProt P36888, ITD)
Method: as §1
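Further: KINOMEscan kinase panel binding assay, signal normalized between DMSO as 100% and a positive control compound as 0%.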

T1 sequence (P31152 whole entry): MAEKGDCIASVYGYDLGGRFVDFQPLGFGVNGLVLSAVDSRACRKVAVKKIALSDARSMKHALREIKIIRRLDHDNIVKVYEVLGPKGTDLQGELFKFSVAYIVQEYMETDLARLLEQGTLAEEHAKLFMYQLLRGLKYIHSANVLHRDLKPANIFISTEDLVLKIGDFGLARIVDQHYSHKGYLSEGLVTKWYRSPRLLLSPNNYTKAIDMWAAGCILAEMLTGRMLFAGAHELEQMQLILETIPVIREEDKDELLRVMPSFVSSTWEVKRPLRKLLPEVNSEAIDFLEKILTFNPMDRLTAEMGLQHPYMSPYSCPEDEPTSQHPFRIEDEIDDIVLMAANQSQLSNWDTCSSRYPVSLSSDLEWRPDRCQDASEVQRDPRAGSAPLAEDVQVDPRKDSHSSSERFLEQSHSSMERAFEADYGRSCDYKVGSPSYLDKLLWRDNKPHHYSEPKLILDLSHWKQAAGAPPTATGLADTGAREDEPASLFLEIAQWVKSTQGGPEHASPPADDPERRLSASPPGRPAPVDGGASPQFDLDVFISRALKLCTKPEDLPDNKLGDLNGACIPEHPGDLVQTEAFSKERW
TRPM6, sequence (Q9BX84 whole entry): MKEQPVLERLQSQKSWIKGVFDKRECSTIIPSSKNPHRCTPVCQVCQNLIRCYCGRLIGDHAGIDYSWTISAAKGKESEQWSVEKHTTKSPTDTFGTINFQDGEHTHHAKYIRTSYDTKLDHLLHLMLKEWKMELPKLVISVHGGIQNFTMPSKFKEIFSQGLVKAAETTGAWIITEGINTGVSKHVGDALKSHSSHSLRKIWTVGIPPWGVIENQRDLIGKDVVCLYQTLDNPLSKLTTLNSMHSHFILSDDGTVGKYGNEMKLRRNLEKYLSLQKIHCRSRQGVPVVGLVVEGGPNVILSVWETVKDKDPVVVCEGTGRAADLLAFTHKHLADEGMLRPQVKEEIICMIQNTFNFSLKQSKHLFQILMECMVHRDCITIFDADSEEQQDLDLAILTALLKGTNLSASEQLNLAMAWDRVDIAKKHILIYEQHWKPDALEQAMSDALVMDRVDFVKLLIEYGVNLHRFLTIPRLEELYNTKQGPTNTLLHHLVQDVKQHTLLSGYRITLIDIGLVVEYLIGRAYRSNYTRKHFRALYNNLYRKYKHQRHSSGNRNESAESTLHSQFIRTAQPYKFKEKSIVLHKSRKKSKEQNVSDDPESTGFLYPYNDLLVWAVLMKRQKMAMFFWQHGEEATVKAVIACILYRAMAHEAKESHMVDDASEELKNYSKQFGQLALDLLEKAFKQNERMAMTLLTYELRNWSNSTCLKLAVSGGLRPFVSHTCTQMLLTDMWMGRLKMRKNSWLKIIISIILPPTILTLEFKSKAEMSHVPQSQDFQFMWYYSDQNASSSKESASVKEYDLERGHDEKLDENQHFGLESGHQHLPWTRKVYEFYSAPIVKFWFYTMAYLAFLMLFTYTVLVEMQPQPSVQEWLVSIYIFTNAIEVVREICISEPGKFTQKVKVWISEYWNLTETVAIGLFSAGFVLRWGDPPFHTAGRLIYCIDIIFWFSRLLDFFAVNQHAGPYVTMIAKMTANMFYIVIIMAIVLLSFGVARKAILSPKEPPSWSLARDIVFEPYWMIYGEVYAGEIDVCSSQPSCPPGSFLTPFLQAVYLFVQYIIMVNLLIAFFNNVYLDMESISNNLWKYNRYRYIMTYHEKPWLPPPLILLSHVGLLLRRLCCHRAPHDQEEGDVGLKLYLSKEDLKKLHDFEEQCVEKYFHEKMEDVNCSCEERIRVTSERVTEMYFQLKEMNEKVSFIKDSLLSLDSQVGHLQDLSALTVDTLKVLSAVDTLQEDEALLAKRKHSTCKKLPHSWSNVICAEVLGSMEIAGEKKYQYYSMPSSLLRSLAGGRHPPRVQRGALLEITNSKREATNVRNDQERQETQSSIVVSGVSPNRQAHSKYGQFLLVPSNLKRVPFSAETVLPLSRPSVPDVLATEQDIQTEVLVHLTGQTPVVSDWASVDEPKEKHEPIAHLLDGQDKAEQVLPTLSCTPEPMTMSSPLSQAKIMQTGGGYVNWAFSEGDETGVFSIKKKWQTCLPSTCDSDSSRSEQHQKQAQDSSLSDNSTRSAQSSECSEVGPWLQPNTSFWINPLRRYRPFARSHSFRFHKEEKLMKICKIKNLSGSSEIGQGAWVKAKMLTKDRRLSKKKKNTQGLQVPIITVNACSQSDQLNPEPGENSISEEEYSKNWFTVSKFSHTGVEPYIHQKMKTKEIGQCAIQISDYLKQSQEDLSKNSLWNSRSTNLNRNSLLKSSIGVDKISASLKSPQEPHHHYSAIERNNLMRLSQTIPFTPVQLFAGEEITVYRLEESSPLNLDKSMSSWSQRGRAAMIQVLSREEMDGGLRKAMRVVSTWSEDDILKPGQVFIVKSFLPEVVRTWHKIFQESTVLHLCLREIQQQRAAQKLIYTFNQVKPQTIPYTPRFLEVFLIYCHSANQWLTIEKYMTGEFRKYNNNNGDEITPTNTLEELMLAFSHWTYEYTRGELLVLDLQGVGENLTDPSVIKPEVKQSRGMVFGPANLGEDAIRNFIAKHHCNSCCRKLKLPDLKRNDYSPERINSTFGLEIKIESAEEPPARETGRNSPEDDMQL
PKN1, sequence (Q16512 whole entry): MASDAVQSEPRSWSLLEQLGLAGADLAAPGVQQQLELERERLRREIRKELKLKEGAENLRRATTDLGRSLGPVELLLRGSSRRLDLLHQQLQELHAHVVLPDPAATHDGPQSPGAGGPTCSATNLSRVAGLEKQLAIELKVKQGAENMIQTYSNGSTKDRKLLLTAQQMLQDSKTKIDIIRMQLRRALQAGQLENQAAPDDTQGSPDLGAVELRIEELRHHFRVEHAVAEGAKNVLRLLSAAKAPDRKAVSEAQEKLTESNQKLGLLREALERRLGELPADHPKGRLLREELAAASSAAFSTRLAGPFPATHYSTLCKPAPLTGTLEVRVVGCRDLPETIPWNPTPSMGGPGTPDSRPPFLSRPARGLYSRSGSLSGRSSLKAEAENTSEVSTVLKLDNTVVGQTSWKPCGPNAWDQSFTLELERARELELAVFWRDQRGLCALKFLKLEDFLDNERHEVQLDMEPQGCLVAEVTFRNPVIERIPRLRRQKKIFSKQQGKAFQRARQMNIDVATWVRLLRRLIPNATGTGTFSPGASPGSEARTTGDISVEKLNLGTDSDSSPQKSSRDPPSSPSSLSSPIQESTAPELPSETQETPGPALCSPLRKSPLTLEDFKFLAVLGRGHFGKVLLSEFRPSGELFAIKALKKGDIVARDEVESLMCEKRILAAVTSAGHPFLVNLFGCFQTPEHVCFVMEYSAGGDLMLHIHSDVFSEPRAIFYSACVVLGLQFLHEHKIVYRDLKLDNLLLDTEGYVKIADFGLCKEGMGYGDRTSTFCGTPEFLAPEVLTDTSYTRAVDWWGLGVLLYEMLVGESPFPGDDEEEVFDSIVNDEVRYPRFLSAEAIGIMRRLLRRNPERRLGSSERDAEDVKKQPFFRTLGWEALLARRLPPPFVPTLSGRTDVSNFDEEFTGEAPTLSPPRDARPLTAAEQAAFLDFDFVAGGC
CDKL1, sequence (Q00532 whole entry): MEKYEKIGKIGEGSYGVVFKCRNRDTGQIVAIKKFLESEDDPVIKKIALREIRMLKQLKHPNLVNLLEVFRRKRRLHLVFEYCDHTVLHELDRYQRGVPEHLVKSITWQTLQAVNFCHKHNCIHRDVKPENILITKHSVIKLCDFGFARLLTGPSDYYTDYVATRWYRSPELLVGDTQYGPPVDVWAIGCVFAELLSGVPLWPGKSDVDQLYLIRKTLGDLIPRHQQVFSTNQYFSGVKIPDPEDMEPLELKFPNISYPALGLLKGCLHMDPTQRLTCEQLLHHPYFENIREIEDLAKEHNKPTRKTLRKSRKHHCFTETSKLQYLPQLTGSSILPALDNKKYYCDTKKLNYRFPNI
EGFR(L858R,T790M), sequence (P00533 whole entry T790M/L858R): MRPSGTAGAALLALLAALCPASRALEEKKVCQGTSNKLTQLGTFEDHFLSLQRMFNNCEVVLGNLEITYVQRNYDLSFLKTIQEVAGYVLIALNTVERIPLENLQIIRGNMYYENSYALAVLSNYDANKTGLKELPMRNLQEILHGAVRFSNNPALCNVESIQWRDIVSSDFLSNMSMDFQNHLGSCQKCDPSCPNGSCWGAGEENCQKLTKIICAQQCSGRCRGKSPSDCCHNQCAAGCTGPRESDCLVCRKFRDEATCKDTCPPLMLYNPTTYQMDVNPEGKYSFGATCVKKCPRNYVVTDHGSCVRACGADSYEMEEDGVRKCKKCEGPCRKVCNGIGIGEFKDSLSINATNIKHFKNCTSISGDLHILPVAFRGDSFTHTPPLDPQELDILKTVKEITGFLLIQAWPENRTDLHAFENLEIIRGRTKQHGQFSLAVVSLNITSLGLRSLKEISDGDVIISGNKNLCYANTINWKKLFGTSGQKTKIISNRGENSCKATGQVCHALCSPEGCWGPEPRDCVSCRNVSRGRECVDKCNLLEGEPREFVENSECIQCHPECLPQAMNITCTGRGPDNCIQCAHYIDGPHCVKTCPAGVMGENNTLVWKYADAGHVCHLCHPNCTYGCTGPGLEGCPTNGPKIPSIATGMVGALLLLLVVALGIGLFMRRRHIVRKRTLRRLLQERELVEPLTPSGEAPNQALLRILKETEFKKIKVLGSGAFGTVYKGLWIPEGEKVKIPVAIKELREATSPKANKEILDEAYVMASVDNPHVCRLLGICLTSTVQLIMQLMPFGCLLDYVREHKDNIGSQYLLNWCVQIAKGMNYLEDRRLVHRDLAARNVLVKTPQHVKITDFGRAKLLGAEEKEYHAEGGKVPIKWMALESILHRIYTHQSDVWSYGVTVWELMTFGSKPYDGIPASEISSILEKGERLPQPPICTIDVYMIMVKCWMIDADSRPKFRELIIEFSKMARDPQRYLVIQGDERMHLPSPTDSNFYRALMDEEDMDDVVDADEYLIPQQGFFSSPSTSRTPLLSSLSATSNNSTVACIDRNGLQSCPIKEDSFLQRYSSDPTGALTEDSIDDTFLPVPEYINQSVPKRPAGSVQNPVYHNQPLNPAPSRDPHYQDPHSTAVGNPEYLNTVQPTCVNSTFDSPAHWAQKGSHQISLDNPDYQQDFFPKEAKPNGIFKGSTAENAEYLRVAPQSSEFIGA

SMILES: Cc1cnc2nc1Nc1cccc(c1)COCc1cc(ccc1OCCN1CCCC1)N2 [Compound 1]
- remaining binding at 0.1 µM (IGF1R): 91%
- remaining binding at 0.1 µM (TNK2): 86%
- remaining binding at 0.1 µM (CAMK1): 92%
- remaining binding at 0.1 µM (CAMKK1): 100%
- remaining binding at 0.1 µM (ALK(C1156Y)): 40%
- remaining binding at 0.1 µM (FLT3): 36%
- remaining binding at 0.1 µM (PKN1): 93%
- remaining binding at 0.1 µM (ERK4): 81%
- remaining binding at 0.1 µM [1]: 27%
- remaining binding at 0.1 µM (SBK1): 57%
- remaining binding at 0.1 µM (FGFR2): 79%
- remaining binding at 0.1 µM (CDC2L5): 81%
- remaining binding at 0.1 µM (RAF1): 98%
- remaining binding at 0.1 µM (TNK1): 38%
- remaining binding at 0.1 µM (STK39): 62%
- remaining binding at 0.1 µM (TRPM6): 85%
- remaining binding at 0.1 µM (CTK): 97%
- remaining binding at 0.1 µM (CDKL1): 86%
- remaining binding at 0.1 µM (MRCKA): 99%
- remaining binding at 0.1 µM (JNK1): 50%
- remaining binding at 0.1 µM (EGFR(L858R,T790M)): 65%
- remaining binding at 0.1 µM (FLT3(D835Y)): 14%
- remaining binding at 0.1 µM (ASK2): 96%
- remaining binding at 0.1 µM (PIK3CA(H1047L)): 74%
- remaining binding at 0.1 µM (FLT3(ITD)): 17%
